{
  "source": "patent US20140343000A1",
  "about": "(priority 2011, published 2014)",
  "note": "Counter-ions that a name gives are not always drawn.",
  "data": [
    {"system": "recombinant NL4-3 virus (Renilla luciferase in nef, Gag P373S; NLRluc) in MT-2 cells", "experiment": "whole plant or invertebrate", "format": "cell-based, HIV", "conditions": "Renilla, NL43", "method_in_brief": "(§1)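 Cells grown in serum-supplemented RPMI were exposed to graded inhibitor concentrations during a 4-5 day infection. Antiviral effect was then derived from luminescence after adding a combined lysis and dual-luciferase substrate mixture to each well.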", "units": {"EC50": "nM"}, "values": [
      {"smiles": "C=C(C)[C@@H]1CC[C@]2(NCCNc3cccnn3)CC[C@]3(C)[C@H](CC[C@@H]4[C@@]5(C)CC=C(c6ccc(C(=O)O)cc6)C(C)(C)[C@@H]5CC[C@]43C)[C@@H]12", "note": "[Example 200, 4-((1R,3aS,5aR,5bR,7aR,11aS,11bR,13aR,13bR)-5a,5b,8,8,11a-pentamethyl-1-(prop-1-en-2-yl)-3a-(2-(pyridazin-3-ylamino)ethylamino)-2,3,3a,4,5,5a,5b,6,7,7a,8,11,11a,11b,12,13,13a,13b-octadecahydro-1H-cyclopenta[a]chrysen-9-yl)benzoic acid]", "EC50": "< 100"}
    ]},
    {"system": "recombinant NL4-3 virus (Renilla luciferase in nef, Gag P373S; NLRluc) in MT-2 cells", "experiment": "whole plant or invertebrate", "format": "cell-based, HIV", "conditions": "Renilla, NL43, luciferase activity in cells infected for 4-5 days with NLRluc recombinants, serial dilutions of inhibitor; class symbols (key in Table 1); read-out: EC50", "method_in_brief": "as §1", "units": {"EC50": "nM"}, "values": [
      {"smiles": "C=C(C)[C@@H]1CC[C@]2(NCCNc3nccc(SC)n3)CC[C@]3(C)[C@H](CC[C@@H]4[C@@]5(C)CC=C(c6ccc(C(=O)O)cc6)C(C)(C)[C@@H]5CC[C@]43C)[C@@H]12", "note": "[Example 197, 4-((1R,3aS,5aR,5bR,7aR,11aS,11bR,13aR,13bR)-5a,5b,8,8,11a-pentamethyl-3a-(2-(4-(methylthio)pyrimidin-2-ylamino)ethylamino)-1-(prop-1-en-2-yl)-2,3,3a,4,5,5a,5b,6,7,7a,8,11,11a,11b,12,13,13a,13b-octadecahydro-1H-cyclopenta[a]chrysen-9-yl)benzoic acid]", "EC50": "< 100"},
      {"smiles": "C=C(C)[C@@H]1CC[C@]2(NCCNc3cccc(SC)n3)CC[C@]3(C)[C@H](CC[C@@H]4[C@@]5(C)CC=C(c6ccc(C(=O)O)cc6)C(C)(C)[C@@H]5CC[C@]43C)[C@@H]12", "note": "[Example 198, 4-((1R,3aS,5aR,5bR,7aR,11aS,11bR,13aR,13bR)-5a,5b,8,8,11a-pentamethyl-3a-(2-(6-(methylthio)pyridin-2-ylamino)ethylamino)-1-(prop-1-en-2-yl)-2,3,3a,4,5,5a,5b,6,7,7a,8,11,11a,11b,12,13,13a,13b-octadecahydro-1H-cyclopenta[a]chrysen-9-yl)benzoic acid]", "EC50": "< 100"},
      {"smiles": "C=C(C)[C@@H]1CC[C@]2(NCCNc3ncccn3)CC[C@]3(C)[C@H](CC[C@@H]4[C@@]5(C)CC=C(c6ccc(C(=O)O)cc6)C(C)(C)[C@@H]5CC[C@]43C)[C@@H]12", "note": "[Example 199, 4-((1R,3aS,5aR,5bR,7aR,11aS,11bR,13aR,13bR)-5a,5b,8,8,11a-pentamethyl-1-(prop-1-en-2-yl)-3a-(2-(pyrimidin-2-ylamino)ethylamino)-2,3,3a,4,5,5a,5b,6,7,7a,8,11,11a,11b,12,13,13a,13b-octadecahydro-1H-cyclopenta[a]chrysen-9-yl)benzoic acid]", "EC50": "< 100"},
      {"smiles": "C=C(C)[C@@H]1CC[C@]2(NCCNc3ccc(S(C)(=O)=O)cn3)CC[C@]3(C)[C@H](CC[C@@H]4[C@@]5(C)CC=C(c6ccc(C(=O)O)cc6)C(C)(C)[C@@H]5CC[C@]43C)[C@@H]12", "note": "[Example 201, 4-((1R,3aS,5aR,5bR,7aR,11aS,11bR,13aR,13bR)-5a,5b,8,8,11a-pentamethyl-3a-(2-(5-(methylsulfonyl)pyridin-2-ylamino)ethylamino)-1-(prop-1-en-2-yl)-2,3,3a,4,5,5a,5b,6,7,7a,8,11,11a,11b,12,13,13a,13b-octadecahydro-1H-cyclopenta[a]chrysen-9-yl)benzoic acid]", "EC50": "< 100"},
      {"smiles": "C=C(C)[C@@H]1CC[C@]2(N)CC[C@]3(C)[C@H](CC[C@@H]4[C@@]5(C)CC=C(c6ccc(C(=O)O)c(F)c6)C(C)(C)[C@@H]5CC[C@]43C)[C@@H]12", "note": "[Example A1, 4-((1R,3aS,5aR,5bR,7aR,11aS,11bR,13aR,13bR)-3a-amino-5a,5b,8,8,11a-pentamethyl-1-(prop-1-en-2-yl)-2,3,3a,4,5,5a,5b,6,7,7a,8,11,11a,11b,12,13,13a,13b-octadecahydro-1H-cyclopenta[a]chrysen-9-yl)-2-fluorobenzoic acid]", "EC50": "< 100"},
      {"smiles": "C=C(C)[C@@H]1CC[C@]2(NCCN3CCS(=O)(=O)CC3)CC[C@]3(C)[C@H](CC[C@@H]4[C@@]5(C)CC=C(c6ccc(C(=O)O)c(F)c6)C(C)(C)[C@@H]5CC[C@]43C)[C@@H]12", "note": "[Example A2, benzoic acid, 4-[(1R,3aS,5aR,5bR,7aR,11aS,11bR,13aR,13bR)-3a-[[2-(1,1-dioxido-4-thiomorpholinyl)ethyl]amino]-2,3,3a,4,5,5a,5b,6,7,7a,8,11,11a,11b,12,13,13a,13b-octadecahydro-5a,5b,8,8,11a-pentamethyl-1-(1-methylethenyl)-1H-cyclopenta[a]chrysen-9-yl]-2-fluoro-, HCl]", "EC50": "< 100"},
      {"smiles": "C=C(C)[C@@H]1CC[C@]2(NCCN3CCOCC3)CC[C@]3(C)[C@H](CC[C@@H]4[C@@]5(C)CC=C(c6ccc(C(=O)O)c(F)c6)C(C)(C)[C@@H]5CC[C@]43C)[C@@H]12", "note": "[Example A3, 2-fluoro-4-((1R,3aS,5aR,5bR,7aR,11aS,11bR,13aR,13bR)-5a,5b,8,8,11a-pentamethyl-3a-(2-morpholinoethylamino)-1-(prop-1-en-2-yl)-2,3,3a,4,5,5a,5b,6,7,7a,8,11,11a,11b,12,13,13a,13b-octadecahydro-1H-cyclopenta[a]chrysen-9-yl)benzoic acid]", "EC50": "< 100"},
      {"smiles": "C=C(C)[C@@H]1CC[C@]2(NCCN3CCCC3=O)CC[C@]3(C)[C@H](CC[C@@H]4[C@@]5(C)CC=C(c6ccc(C(=O)O)c(F)c6)C(C)(C)[C@@H]5CC[C@]43C)[C@@H]12", "note": "[Example A4, 2-fluoro-4-((1R,3aS,5aR,5bR,7aR,11aS,11bR,13aR,13bR)-5a,5b,8,8,11a-pentamethyl-3a-(2-(2-oxopyrrolidin-1-yl)ethylamino)-1-(prop-1-en-2-yl)-2,3,3a,4,5,5a,5b,6,7,7a,8,11,11a,11b,12,13,13a,13b-octadecahydro-1H-cyclopenta[a]chrysen-9-yl)benzoic acid]", "EC50": "< 100"},
      {"smiles": "C=C(C)[C@@H]1CC[C@]2(NCCCN3CCCC3=O)CC[C@]3(C)[C@H](CC[C@@H]4[C@@]5(C)CC=C(c6ccc(C(=O)O)c(F)c6)C(C)(C)[C@@H]5CC[C@]43C)[C@@H]12", "note": "[Example A5, 2-fluoro-4-((1R,3aS,5aR,5bR,7aR,11aS,11bR,13aR,13bR)-5a,5b,8,8,11a-pentamethyl-3a-(3-(2-oxopyrrolidin-1-yl)propylamino)-1-(prop-1-en-2-yl)-2,3,3a,4,5,5a,5b,6,7,7a,8,11,11a,11b,12,13,13a,13b-octadecahydro-1H-cyclopenta[a]chrysen-9-yl)benzoic acid]", "EC50": "< 100"},
      {"smiles": "C=C(C)[C@@H]1CC[C@]2(NCCCN3CCS(=O)(=O)CC3)CC[C@]3(C)[C@H](CC[C@@H]4[C@@]5(C)CC=C(c6ccc(C(=O)O)c(F)c6)C(C)(C)[C@@H]5CC[C@]43C)[C@@H]12", "note": "[Example A6, benzoic acid, 4-[(1R,3aS,5aR,5bR,7aR,11aS,11bR,13aR,13bR)-3a-[[3-(1,1-dioxido-4-thiomorpholinyl)propyl]amino]-2,3,3a,4,5,5a,5b,6,7,7a,8,11,11a,11b,12,13,13a,13b-octadecahydro-5a,5b,8,8,11a-pentamethyl-1-(1-methylethenyl)-1H-cyclopenta[a]chrysen-9-yl]-2-fluoro-]", "EC50": "< 100"},
      {"smiles": "C=C(C)[C@@H]1CC[C@]2(NCCN3CCN(S(C)(=O)=O)CC3)CC[C@]3(C)[C@H](CC[C@@H]4[C@@]5(C)CC=C(c6ccc(C(=O)O)c(F)c6)C(C)(C)[C@@H]5CC[C@]43C)[C@@H]12", "note": "[Example A8]", "EC50": "< 100"},
      {"smiles": "C=C(C)[C@@H]1CC[C@]2(N)CC[C@]3(C)[C@H](CC[C@@H]4[C@@]5(C)CC=C(c6ccc(C(=O)O)s6)C(C)(C)[C@@H]5CC[C@]43C)[C@@H]12", "note": "[Example B1, 5-((1R,3aS,5aR,5bR,7aR,11aS,11bR,13aR,13bR)-3a-amino-5a,5b,8,8,11a-pentamethyl-1-(prop-1-en-2-yl)-2,3,3a,4,5,5a,5b,6,7,7a,8,11,11a,11b,12,13,13a,13b-octadecahydro-1H-cyclopenta[a]chrysen-9-yl)thiophene-2-carboxylic acid]", "EC50": "< 100"},
      {"smiles": "CC(C)[C@@H]1CC[C@]2(NCCN3CCS(=O)(=O)CC3)CC[C@]3(C)[C@H](CC[C@@H]4[C@@]5(C)CC[C@H](c6ccc(C(=O)O)cc6)C(C)(C)[C@@H]5CC[C@]43C)[C@@H]12", "note": "[Example B2, 4-((1S,3aS,5aR,5bR,7aS,9S,11aS,11bR,13aR,13bR)-3a-((2-(1,1-dioxidothiomorpholino)ethyl)amino)-1-isopropyl-5a,5b,8,8,11a-pentamethylicosahydro-1H-cyclopenta[a]chrysen-9-yl)benzoic acid]", "EC50": "< 100"},
      {"smiles": "CC(C)[C@@H]1CC[C@]2(N)CC[C@]3(C)[C@H](CC[C@@H]4[C@@]5(C)CC[C@H](c6ccc(C(=O)O)cc6)C(C)(C)[C@@H]5CC[C@]43C)[C@@H]12", "note": "[Example B3, 4-((1S,3aS,5aR,5bR,7aS,9S,11aS,11bR,13aR,13bR)-3a-amino-1-isopropyl-5a,5b,8,8,11a-pentamethylicosahydro-1H-cyclopenta[a]chrysen-9-yl)benzoic acid]", "EC50": "< 100"},
      {"smiles": "CC(C)[C@@H]1CC[C@]2(NCCN3CCOCC3)CC[C@]3(C)[C@H](CC[C@@H]4[C@@]5(C)CC[C@H](c6ccc(C(=O)O)cc6)C(C)(C)[C@@H]5CC[C@]43C)[C@@H]12", "note": "[Example B4]", "EC50": "< 100"},
      {"smiles": "CC(C)[C@@H]1CC[C@]2(NCCN(C)C)CC[C@]3(C)[C@H](CC[C@@H]4[C@@]5(C)CC[C@H](c6ccc(C(=O)O)cc6)C(C)(C)[C@@H]5CC[C@]43C)[C@@H]12", "note": "[Example B5, 4-((1S,3aS,5aR,5bR,7aS,9S,11aS,11bR,13aR,13bR)-3a-((2-(dimethylamino)ethyl)amino)-1-isopropyl-5a,5b,8,8,11a-pentamethylicosahydro-1H-cyclopenta[a]chrysen-9-yl)benzoic acid]", "EC50": "< 100"},
      {"smiles": "CC(C)[C@@H]1CC[C@]2(N(CCN(C)C)CCN(C)C)CC[C@]3(C)[C@H](CC[C@@H]4[C@@]5(C)CC[C@H](c6ccc(C(=O)O)cc6)C(C)(C)[C@@H]5CC[C@]43C)[C@@H]12", "note": "[Example B6, 4-((1S,3aS,5aR,5bR,7aS,9S,11aS,11bR,13aR,13bR)-3a-(bis(2-(dimethylamino)ethyl)amino)-1-isopropyl-5a,5b,8,8,11a-pentamethylicosahydro-1H-cyclopenta[a]chrysen-9-yl)benzoic acid]", "EC50": "< 100"}
    ]}
  ]
}
